# Experimental data from ChEMBL document CHEMBL5500380, “Recent discovery and development of AXL inhibitors as antitumor agents” (Eur J Med Chem, 2024).
# pIC50: −log10 of the molar value.
# How the values were obtained:
# [1] = target: T1, Tyrosine-protein kinase receptor UFO (Homo sapiens, UniProt P30530); assay: Inhibition of AXL (unknown origin)
# T1 sequence (P30530 whole entry): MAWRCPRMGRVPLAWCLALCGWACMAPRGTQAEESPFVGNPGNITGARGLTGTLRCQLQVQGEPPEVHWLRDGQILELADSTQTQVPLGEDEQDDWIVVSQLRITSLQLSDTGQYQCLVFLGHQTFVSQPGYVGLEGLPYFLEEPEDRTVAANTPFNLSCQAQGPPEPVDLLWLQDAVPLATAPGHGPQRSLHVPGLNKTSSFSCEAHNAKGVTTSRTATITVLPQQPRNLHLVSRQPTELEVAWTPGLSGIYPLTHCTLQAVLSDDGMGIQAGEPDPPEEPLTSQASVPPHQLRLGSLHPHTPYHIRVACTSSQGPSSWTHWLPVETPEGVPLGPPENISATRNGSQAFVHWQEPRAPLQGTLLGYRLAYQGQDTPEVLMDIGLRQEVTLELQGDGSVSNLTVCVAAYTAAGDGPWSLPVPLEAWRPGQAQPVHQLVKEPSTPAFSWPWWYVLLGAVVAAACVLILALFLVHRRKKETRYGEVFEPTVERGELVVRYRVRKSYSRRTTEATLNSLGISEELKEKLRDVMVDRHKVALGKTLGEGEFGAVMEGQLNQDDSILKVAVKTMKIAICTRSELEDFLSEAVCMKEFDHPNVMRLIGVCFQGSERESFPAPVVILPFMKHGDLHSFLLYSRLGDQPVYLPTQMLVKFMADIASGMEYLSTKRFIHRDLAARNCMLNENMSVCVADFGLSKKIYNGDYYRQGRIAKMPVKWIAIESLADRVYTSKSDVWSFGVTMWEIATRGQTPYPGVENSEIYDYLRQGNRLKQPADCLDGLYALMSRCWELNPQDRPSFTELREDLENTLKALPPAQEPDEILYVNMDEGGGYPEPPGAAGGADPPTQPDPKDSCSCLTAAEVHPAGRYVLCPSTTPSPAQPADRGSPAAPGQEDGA
# [2] = target: T1, Tyrosine-protein kinase receptor UFO; assay: Inhibition of AXL (unknown origin) by HTRF kinase assay
# [3] = target: Aurora kinase B (Homo sapiens, UniProt Q96GD4); assay: Inhibition of AURORA-B (unknown origin)
# [4] = target: Epithelial discoidin domain-containing receptor 1 (Homo sapiens, UniProt Q08345); assay: Inhibition of DDR1 (unknown origin)
# [5] = target: T2, Aurora kinase A (Homo sapiens, UniProt O14965); assay: Inhibition of AURORA-A (unknown origin)
# T2 sequence (O14965 whole entry): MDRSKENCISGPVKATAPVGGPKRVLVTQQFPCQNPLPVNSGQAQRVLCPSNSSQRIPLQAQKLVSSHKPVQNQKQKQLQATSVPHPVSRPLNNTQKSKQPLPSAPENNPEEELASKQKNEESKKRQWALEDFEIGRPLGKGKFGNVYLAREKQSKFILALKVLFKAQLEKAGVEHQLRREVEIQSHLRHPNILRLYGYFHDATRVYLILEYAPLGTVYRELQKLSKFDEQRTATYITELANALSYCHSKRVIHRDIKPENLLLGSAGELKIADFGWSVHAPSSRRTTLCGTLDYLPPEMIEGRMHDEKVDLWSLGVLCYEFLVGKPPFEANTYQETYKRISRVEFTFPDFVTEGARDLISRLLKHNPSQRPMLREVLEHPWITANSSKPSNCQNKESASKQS
# [6] = target: T3, Tyrosine-protein kinase receptor TYRO3 (Homo sapiens) (UniProt Q06418); assay: Inhibition of TYRO3 (unknown origin) at 100 nM relative to control
# T3 sequence (whole entry): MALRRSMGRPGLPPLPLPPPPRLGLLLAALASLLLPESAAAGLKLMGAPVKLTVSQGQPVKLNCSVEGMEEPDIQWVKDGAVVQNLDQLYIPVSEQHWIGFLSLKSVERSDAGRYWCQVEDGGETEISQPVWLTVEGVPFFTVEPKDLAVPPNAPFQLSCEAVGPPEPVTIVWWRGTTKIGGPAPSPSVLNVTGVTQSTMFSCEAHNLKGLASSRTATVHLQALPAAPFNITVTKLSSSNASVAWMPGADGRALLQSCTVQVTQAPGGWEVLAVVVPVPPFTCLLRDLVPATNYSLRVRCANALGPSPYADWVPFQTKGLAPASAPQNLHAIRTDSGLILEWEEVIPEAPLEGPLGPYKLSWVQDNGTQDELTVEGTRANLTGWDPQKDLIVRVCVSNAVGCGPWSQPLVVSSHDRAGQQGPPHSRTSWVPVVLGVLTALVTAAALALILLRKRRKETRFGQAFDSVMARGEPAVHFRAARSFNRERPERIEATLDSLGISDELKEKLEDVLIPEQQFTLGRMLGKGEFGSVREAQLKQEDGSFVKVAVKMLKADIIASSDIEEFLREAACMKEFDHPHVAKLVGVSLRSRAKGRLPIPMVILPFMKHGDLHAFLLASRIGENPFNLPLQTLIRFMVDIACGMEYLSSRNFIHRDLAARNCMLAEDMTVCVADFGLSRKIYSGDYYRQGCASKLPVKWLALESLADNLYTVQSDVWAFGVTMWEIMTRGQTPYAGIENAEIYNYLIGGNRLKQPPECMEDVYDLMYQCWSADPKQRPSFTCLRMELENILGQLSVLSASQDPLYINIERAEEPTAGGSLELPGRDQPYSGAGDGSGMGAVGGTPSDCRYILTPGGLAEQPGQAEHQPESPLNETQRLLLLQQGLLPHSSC
# [7] = target: Hepatocyte growth factor receptor (Homo sapiens) (UniProt P08581); assay: Inhibition of c-MET (unknown origin) at 100 nM relative to control
# [8] = target: T4, Tyrosine-protein kinase Mer (Homo sapiens) (UniProt Q12866); assay: Inhibition of MER (unknown origin) at 100 nM relative to control
# T4 sequence (whole entry): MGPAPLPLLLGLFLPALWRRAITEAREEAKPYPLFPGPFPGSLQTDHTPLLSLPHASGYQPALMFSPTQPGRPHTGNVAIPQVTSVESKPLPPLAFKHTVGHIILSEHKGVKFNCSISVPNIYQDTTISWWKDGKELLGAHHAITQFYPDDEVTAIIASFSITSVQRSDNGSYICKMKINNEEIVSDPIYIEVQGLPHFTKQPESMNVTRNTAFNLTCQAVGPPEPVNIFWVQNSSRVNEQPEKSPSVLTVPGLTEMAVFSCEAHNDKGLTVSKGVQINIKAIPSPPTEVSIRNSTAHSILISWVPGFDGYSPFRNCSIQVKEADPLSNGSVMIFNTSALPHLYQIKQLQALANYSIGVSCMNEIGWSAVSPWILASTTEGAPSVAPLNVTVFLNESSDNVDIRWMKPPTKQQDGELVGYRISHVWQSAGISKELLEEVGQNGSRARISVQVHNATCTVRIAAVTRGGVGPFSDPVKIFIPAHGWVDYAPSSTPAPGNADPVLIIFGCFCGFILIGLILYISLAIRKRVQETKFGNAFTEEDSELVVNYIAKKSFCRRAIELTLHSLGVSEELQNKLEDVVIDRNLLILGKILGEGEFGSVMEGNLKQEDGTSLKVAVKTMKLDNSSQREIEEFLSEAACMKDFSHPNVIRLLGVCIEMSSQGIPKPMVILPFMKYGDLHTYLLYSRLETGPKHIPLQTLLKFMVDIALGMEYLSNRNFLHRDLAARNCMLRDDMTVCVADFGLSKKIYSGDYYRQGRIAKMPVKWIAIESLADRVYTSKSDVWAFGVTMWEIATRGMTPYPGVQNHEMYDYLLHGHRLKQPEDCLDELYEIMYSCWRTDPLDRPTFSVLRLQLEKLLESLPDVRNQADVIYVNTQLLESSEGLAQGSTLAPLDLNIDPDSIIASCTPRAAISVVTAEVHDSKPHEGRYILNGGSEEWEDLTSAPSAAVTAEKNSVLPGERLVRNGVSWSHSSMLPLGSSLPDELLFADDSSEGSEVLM
# Epithelial discoidin domain-containing receptor 1, sequence (Q08345 whole entry, the tested form may be a part): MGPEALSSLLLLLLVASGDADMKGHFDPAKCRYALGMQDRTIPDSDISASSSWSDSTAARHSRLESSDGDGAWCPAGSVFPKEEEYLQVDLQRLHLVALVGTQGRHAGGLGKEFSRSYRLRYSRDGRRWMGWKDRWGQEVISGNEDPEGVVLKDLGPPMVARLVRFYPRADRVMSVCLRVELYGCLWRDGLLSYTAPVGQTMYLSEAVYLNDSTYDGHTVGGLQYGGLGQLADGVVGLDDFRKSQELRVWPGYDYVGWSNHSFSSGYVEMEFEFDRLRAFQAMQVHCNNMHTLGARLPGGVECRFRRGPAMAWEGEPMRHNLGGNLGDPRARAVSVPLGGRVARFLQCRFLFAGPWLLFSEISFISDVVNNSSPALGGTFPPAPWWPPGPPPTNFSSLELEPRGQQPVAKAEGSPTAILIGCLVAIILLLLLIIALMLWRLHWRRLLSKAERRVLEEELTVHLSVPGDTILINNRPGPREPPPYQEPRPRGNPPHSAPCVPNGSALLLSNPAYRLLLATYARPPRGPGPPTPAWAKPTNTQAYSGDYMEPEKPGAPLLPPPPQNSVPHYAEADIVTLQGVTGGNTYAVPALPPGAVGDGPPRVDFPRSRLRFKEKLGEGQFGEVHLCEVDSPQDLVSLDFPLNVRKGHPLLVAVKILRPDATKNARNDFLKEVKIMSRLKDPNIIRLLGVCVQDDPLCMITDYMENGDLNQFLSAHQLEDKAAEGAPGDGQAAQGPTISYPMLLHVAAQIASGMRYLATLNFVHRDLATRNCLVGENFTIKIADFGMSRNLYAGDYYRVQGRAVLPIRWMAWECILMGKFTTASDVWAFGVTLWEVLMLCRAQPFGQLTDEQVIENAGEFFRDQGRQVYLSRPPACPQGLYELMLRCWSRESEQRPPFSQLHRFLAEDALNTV
# Aurora kinase B, sequence (Q96GD4 whole entry, the tested form may be a part): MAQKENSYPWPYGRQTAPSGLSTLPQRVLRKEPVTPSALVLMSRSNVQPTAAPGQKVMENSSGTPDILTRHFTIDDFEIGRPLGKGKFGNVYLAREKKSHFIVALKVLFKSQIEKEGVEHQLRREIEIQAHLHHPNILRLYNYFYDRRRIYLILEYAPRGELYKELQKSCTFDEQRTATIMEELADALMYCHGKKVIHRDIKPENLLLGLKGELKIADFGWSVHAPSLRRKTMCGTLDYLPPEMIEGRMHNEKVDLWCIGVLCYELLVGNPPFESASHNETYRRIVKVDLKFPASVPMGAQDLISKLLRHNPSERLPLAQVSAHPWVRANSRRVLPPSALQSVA
# Hepatocyte growth factor receptor (Homo sapiens), sequence (P08581 whole entry): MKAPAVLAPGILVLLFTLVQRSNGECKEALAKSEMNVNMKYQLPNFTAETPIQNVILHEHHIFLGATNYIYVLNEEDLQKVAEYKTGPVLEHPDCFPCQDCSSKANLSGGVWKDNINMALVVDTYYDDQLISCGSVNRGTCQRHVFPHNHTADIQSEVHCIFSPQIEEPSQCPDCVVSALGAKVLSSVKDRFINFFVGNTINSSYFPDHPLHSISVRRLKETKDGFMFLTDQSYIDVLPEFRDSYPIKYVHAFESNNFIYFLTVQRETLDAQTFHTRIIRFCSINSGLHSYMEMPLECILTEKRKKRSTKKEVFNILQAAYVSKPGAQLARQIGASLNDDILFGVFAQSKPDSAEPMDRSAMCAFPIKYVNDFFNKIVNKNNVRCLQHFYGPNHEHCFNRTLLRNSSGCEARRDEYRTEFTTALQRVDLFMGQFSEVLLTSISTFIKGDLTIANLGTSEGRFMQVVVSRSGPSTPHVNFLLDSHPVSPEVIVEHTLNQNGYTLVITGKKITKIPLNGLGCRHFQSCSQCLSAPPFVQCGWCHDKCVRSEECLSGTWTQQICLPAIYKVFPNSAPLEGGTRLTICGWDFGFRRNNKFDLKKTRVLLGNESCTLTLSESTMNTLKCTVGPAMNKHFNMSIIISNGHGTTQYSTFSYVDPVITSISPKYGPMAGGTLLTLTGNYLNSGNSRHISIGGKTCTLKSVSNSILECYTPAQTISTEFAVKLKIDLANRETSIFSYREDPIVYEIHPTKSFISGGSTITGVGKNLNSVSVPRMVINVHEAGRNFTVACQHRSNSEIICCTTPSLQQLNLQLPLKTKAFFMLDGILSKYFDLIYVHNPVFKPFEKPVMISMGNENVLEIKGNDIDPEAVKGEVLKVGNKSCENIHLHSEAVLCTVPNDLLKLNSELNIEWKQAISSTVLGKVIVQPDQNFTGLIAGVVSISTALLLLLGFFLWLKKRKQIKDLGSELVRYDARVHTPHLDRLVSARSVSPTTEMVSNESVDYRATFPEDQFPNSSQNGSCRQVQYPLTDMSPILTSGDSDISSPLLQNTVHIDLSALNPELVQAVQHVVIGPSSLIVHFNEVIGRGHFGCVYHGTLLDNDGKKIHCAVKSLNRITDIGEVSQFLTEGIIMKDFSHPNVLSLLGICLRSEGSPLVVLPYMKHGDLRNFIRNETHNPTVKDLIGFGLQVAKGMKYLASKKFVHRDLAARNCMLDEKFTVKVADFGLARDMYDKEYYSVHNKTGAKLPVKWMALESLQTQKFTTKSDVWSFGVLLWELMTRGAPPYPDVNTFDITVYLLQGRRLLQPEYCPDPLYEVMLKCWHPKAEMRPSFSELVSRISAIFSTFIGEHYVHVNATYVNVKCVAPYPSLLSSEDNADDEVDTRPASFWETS
pIC50 [1],Compound,also measured
5.59,CN1CCc2ccc(Nc3ncc(Cl)c(Nc4ccccc4S(=O)(=O)N(C)C)n3)cc2C1,
7.72,Nn1cc(-c2n[nH]c3cc(Cl)c(NC4CCNC4)cc23)cn1 (centres undefined),
8.46,COc1cc2nccc(Oc3ccc(NC(=O)c4c5n(n(-c6ccc(F)cc6)c4=O)CCCC5)cc3F)c2cc1OC,inhibition [6]: 71%; inhibition [7]: 98%; inhibition [8]: 100%

# The remaining lines, values behind:
Compound,pIC50 [1],also measured
COc1cc2nccc(Oc3ccc(NC(=O)c4cc5c(n(-c6ccccc6)c4=O)CCCC5=O)nc3)c2cc1OC [TAMNORZATINIB],,pIC50 [2]: 9.15
COc1cc2ncnc(Oc3ccc(NC(=O)c4c5n(n(-c6cccc(F)c6)c4=O)CCCC5)cc3F)c2cc1OC,8.23,
COc1cc2nccc(Oc3ccc(NC(=O)c4c5n(n(-c6cc(F)ccc6F)c4=O)CCCC5)cc3F)c2cc1OC,8.92,
CCc1ccc2c(c1)c(=O)c(C(=O)Nc1ccc(Oc3ccnc4cc(OC)c(OC)cc34)c(F)c1)c(C)n2C,8.40,pIC50 [3]: 6.94; pIC50 [4]: 7.65; pIC50 [5]: 6.72
O=C(Nc1ccc(Oc2ccnc3c2CCN3)c(F)c1)c1c[nH]cc(-c2ccc(F)cc2)c1=O,8.05,
